Data published in patent US20260167960A1, “METHODS AND COMPOSITIONS INCLUDING CONJUGATED DNAZYMES” (priority 2022, published 2026).

Tested on: K. pneumoniae biofilm on silicon-coated latex Foley catheter
Experiment: Flow-cell catheter-associated biofilm, CFU assay
Format: cell-based
Details: 2-hour perfusion; 750 or 1000 mcg/mL meropenem; FIG. 6A
Protocol: Catheters were then connected to a flow-cell system containing fresh 10% TSB, and fresh media was perfused through the catheter by a pump at 10 ml/hour at 37° C. After 24 hours, treatment solution was perfused into the catheter at 10 ml/hour at 37° C. for 2 hours. Bacteria were scraped from the catheter into 1 ml PBS, and decimal serial dilutions were performed. All dilutions were plated by drop-plating technique on LB agar plates. LB agar plates were incubated at 37° C., and CFU were counted the next morning.
To test the effect of conjugated DNAzymes on established, catheter-associated biofilms, K. pneumoniae were incubated in catheters for 2 hours in static conditions and then for 24 hours with fresh media flow, after which they were subject to a 2-hour perfusion with 750 or 1000 mcg/mL meropenem, alone or in combination with tocopherol-conjugated or cholesterol-conjugated DNAzymes. After the incubation, the tubing was cut open and bacteria were scraped from the inside of the tubing, after which the CFU were determined by replating and observing colony formation. […] When CFU formation was tested in plates containing a much lower concentration (10 mcg/mL) of meropenem, the prior treatment with conjugated DNAzymes+meropenem nearly completely abolished colony formation (FIG. 6B), showing that antibiotic resistance was largely, if not entirely, abrogated in the disrupted biofilms.

C[C@@H](O)[C@H]1C(=O)N2C(C(=O)O)=C(S[C@@H]3CN[C@H](C(=O)N(C)C)C3)[C@H](C)[C@H]12 [meropenem]
disruption of established catheter-associated biofilms (CFU): not antibiotic alone, significantly disrupted the established biofilms
